The numbers were not newly measured in EP0497915B1, “hPTH (1-37) FRAGMENT, ITS PRODUCTION, DRUG CONTAINING IT AND ITS USE” (HaemoPep Pharma GmbH, priority 1989, dated 1991), which cites them from elsewhere.

One data set concerns hPTH-(44-68)-RIA. The following applies: commercial RIA (Immundiagnostik), manufacturer's data.
The test system of the next data set is hPTH-(53-84)-RIA. As to conditions: commercial RIA (Immundiagnostik), manufacturer's data.

As for “hPTH-(1-34): bekanntes synthetisches N-terminales hPTH-Fragment (SVSEIQLMHNLGKHLNSMERVEWLRKKLQDVHNF; Parathyroid hormone; UniProt P01270 32-65, looked up, fragment)”, the “Kreuzreaktion im hPTH-(44-68)-RIA” value with hPTH-(44-68)-RIA was “keine Kreuzreaktion”. Moreover, in the data set on hPTH-(53-84)-RIA, the “Kreuzreaktion im hPTH-(53-84)-RIA” value is given as “keine Kreuzreaktion”.
For the molecule “hPTH-(28-48): synthetisches hPTH-Peptid (LQDVHNFVALGAPLAPRDAGS; Parathyroid hormone; UniProt P01270 59-79, looked up, fragment)”, in the data set with hPTH-(44-68)-RIA, the “Kreuzreaktion im hPTH-(44-68)-RIA” value is given as “keine Kreuzreaktion”. Besides, the “Kreuzreaktion im hPTH-(53-84)-RIA” value in the data set on hPTH-(53-84)-RIA is “keine Kreuzreaktion”.
For “hPTH-(44-68): synthetisches hPTH-Peptid, Standard des mittelregionalen RIA (RDAGSQRPRKKEDNVLVESHEKSLG; Parathyroid hormone; UniProt P01270 75-99, looked up, fragment)”, the “Kreuzreaktion im hPTH-(53-84)-RIA” value in the data set on hPTH-(53-84)-RIA is “keine Kreuzreaktion”.
On to “hPTH-(53-84): synthetisches hPTH-Peptid, Standard des C-terminalen RIA (KKEDNVLVESHEKSLGEADKADVNVLTKAKSQ; Parathyroid hormone; UniProt P01270 84-115, looked up, fragment)”, for which the “Kreuzreaktion im hPTH-(44-68)-RIA” value in the data set on hPTH-(44-68)-RIA is 100%.
With “hPTH-(64-84): synthetisches hPTH-Peptid (EKSLGEADKADVNVLTKAKSQ; Parathyroid hormone; UniProt P01270 95-115, looked up, fragment)”, in the data set on hPTH-(44-68)-RIA, the “Kreuzreaktion im hPTH-(44-68)-RIA” value is on record as “keine Kreuzreaktion”. Also, the “Kreuzreaktion im hPTH-(53-84)-RIA” value with hPTH-(53-84)-RIA was 100%.

B1: hPTH-(1-84): sezerniertes PTH-Molekül aus 84 Aminosäuren (peptide, UniProt P01270 32-115, looked up)
Parathyroid hormone: SVSEIQLMHNLGKHLNSMERVEWLRKKLQDVHNFVALGAPLAPRDAGSQRPRKKEDNVLVESHEKSLGEADKADVNVLTKAKSQ
modifications: Parathyroid hormone
notes: sezerniertes PTH-Molekül aus 84 Aminosäuren
With B1, the “Kreuzreaktion im hPTH-(44-68)-RIA” value in the data set on hPTH-(44-68)-RIA is given as 100%. In the data set on hPTH-(53-84)-RIA, the “Kreuzreaktion im hPTH-(53-84)-RIA” value is reported as 100%.
